Assay results from patent US6881710B1, “Personal care products based upon surfactants based upon alkyl polyglucoside quaternary compounds” (Colonial Chemical Inc., priority 2004, dated 2005).

Columns and labels:
[1] = salon half head study of detergency (cleanliness of washed hair); type: in vivo; conditions: 5% solution; rated by the test person, scale 1 (poor) to 5 excellent
Procedure: Detergency was also studies. The cleanliness of hair washed in the salon in half head studies was conducted. A 5% solution of the composition of the present invention was evaluated. The person having the test run was asked to evaluate the following samples for cleanliness of the hair. The scale was 1 (poor) to 5 excellent.

[2] = modified Ross-Miles Foam Test; type: physicochemical; conditions: 1% active in water, 66-67 °C, shaken ten times; time point not stated; higher is better
Description: Sodium Lauryl sulfate is one of the most commonly used anionic surfactants. While it is a good detergent and produces large volume of foam, it is irritating and has no conditioning properties. In fact, it strips the oil from hair leaving the hair dry and fly away. Compounds of the present invention compare favorably with sodium lauryl sulfate in foam levels, and detergency, but also are non-irritating, conditioning and provide self-preserving properties. This coupled with the fact that they are derived from natural sugars, makes them the perfect single surfactant for personal care formulation. The following compounds were evaluated at 1% active in water. The higher the foam, the better.
The foaming properties of the compositions were also evaluated by a modified “Ross-Miles Foam Test”. This compares the foaming tendencies of different products or surfactants in water at various temperatures.
The test is carried out as follows: • 1. 500 ml. of water (the water should be representative of the system^1) was added to a 1000 ml. graduated cylinder having a cylinder diameter 65 mm. Then 18.0-ppm ortho phosphate is added to the cylinder as a buffer. The test is carried out at a temperature of 66° C. to 67° C. • 2. The concentration tested was 1% by weight solids. • 3. Then cylinder with contents is shaken vertically at the specified temperature ten times (the times shaken equals the number of cycles). After the tenth time, the initial foam height (t=0) is recorded in ml. Then the foam level at t=5 minutes and t=30 minutes is recorded. Results

[3] = salon half head study of conditioning (combability and softness) and wet comb of washed hair; type: in vivo; conditions: 5% solution; rated by the test person, scale 1 (poor) to 5 excellent
Procedure: Conditioning was studied. The wet comb properties of hair washed in the salon in half head studies was conducted. Evaluation of the dry hair was also evaluated. A 5% solution of the composition of the present invention was evaluated. The person having the test run was asked to evaluate the following samples for combability and softness of the hair. The scale was 1 (poor) to 5 excellent.

Candida albicans (yeast) = experiment: antimicrobial zone inhibition technique; type: cell-based; set-up: key: 1=Excellent; 2=Very Good; 3=Good; 4=OK (moderate); 6=Poor; 8=No Activity; conditions: 0.50% by weight in water; lower score = greater activity
Procedure: (§1) A study was conducted to determine the antimicrobial capability of four (4) SugaQuat (alkyl polyglucoside) variations utilizing the zone inhibition technique. The test materials were evaluated for gross antimicrobial activity against a series of four (4) test organisms: Pseudomonas aeruginosa (Gram-negative bacteria); Staphylococcus aureus (Gram-positive bacteria); Candida albicans (yeast) and Aspergillus niger (mold) utilizing the zone inhibition technique.
(§2) • Sodium Lauryl Sulfate (0.50% by weight concentration in water). • Sodium Laureth 2 Sulfate (0.50% by weight concentration in water). • Example 3 (0.50% by weight concentration in water). • Example 4 (0.50% by weight concentration in water). • Example 8 (0.50% by weight concentration in water). • Example 9 (0.50% by weight concentration in water). • Example 7 (0.50% by weight concentration in water). Activity Summary • SCORING: • 1=Excellent; 2=Very Good; 3=Good; 4=OK (moderate); 6=Poor; 8=No Activity Control Compounds

Aspergillus niger (mold) = experiment: antimicrobial zone inhibition technique; type: cell-based; set-up: key: 1=Excellent; 2=Very Good; 3=Good; 4=OK (moderate); 6=Poor; 8=No Activity; conditions: 0.50% by weight in water; lower score = greater activity
Procedure: as §1, §2

[4] = tested on: Pseudomonas aeruginosa (Gram-negative bacteria); experiment: antimicrobial zone inhibition technique; type: cell-based; set-up: key: 1=Excellent; 2=Very Good; 3=Good; 4=OK (moderate); 6=Poor; 8=No Activity; conditions: 0.50% by weight in water; lower score = greater activity
Procedure: as §1, §2

[5] = tested on: Staphylococcus aureus (Gram-positive bacteria); experiment: antimicrobial zone inhibition technique; type: cell-based; set-up: key: 1=Excellent; 2=Very Good; 3=Good; 4=OK (moderate); 6=Poor; 8=No Activity; conditions: 0.50% by weight in water; lower score = greater activity
Procedure: as §1, §2

[6] = tested on: Pseudomonas aeruginosa; Staphylococcus aureus; Candida albicans; Aspergillus niger; experiment: antimicrobial zone inhibition technique, activity summary over four test organisms; type: cell-based; conditions: 0.50% by weight in water; for Comments (antimicrobial activity in words): B = bacteria, Y = yeast, M = mold; for Score (sum of the four organism scores): lower score = greater activity
Procedure: as §1, §2

With Sodium Laureth 2 Sulfate the “Detergency Result (cleanliness of the hair)” value [1] was 4, the “Foam Level” value [2] was 770 mL and the Conditioning [3] was 1. For the same compound, the “Wet Comb” value [3] was 1, the Ca activity score (Candida albicans (yeast)) was 8 and the An activity score (Aspergillus niger (mold)) was 8. The Psa activity score [4] was 8, the Sa activity score [5] was 8 and the “Comments (antimicrobial activity in words)” value [6] was “No activity”. The “Score (sum of the four organism scores)” value [6] was 32.

With Sodium laureth 1-sulfate the “Foam Level” value [2] was 750 mL.

For Sodium laureth 3-sulfate, the “Foam Level” value [2] was 720 mL.

In the case of `CCCCCCCCCCCCOS(=O)(=O)[O-].[Na+]` [Sodium Lauryl Sulfate], the “Detergency Result (cleanliness of the hair)” value [1] is reported as 5, the “Foam Level” value [2] is reported as 900 mL and the Conditioning [3] is reported as 1. For the same compound, the “Wet Comb” value [3] was 1, the Ca activity score (Candida albicans (yeast)) was 8 and the An activity score (Aspergillus niger (mold)) was 8. For the same compound, the Psa activity score [4] was 8, the Sa activity score [5] was 8 and the “Comments (antimicrobial activity in words)” value [6] was “No activity”. For the same compound, the “Score (sum of the four organism scores)” value [6] was 32.
